{
  "source": "paper PMC9643474",
  "about": "“The mycotoxin viriditoxin induces leukemia- and lymphoma-specific apoptosis by targeting mitochondrial metabolism” (Cell Death & Disease, 2022)",
  "target": "T1, complex I (Bos taurus, UniProt P03887+P17694+P42026)",
  "T1 construct": "gene NDUFS2; whole respiratory complex I (about 45 subunits) in isolated bovine heart mitochondria, kit assay",
  "T1 sequence (P17694 34-463)": "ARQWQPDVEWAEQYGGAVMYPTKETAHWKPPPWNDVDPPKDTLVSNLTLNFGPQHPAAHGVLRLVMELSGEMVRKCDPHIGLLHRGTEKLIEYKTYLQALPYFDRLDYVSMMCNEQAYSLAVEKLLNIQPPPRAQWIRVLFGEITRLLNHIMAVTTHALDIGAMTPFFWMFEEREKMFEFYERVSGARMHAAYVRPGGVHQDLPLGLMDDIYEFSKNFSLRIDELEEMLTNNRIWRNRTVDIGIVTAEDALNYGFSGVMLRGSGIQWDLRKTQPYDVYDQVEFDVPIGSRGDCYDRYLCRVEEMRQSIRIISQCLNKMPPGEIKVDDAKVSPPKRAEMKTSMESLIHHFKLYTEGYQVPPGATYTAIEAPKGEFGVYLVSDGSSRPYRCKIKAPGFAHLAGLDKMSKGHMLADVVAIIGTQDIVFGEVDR",
  "T1 sequence (P42026 38-216)": "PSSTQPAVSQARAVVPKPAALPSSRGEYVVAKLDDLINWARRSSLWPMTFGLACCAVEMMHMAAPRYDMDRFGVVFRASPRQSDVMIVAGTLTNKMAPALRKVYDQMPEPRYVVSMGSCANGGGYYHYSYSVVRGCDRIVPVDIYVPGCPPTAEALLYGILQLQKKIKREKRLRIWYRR",
  "T1 sequence (P03887 whole entry)": "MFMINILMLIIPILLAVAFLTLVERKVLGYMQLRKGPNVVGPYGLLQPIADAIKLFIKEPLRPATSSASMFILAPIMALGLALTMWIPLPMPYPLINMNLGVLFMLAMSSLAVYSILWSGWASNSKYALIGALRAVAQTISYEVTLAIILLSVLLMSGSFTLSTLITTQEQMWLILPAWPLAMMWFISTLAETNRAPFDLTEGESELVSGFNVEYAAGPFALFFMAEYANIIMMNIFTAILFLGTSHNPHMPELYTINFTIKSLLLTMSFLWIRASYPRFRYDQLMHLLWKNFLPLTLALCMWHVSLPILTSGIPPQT",
  "assay": "MitoCheck complex activity assay, isolated bovine heart mitochondria",
  "type": "biochemical",
  "conditions": "15 min, decreased complex I activity, binding site unknown",
  "data": [
    {"smiles": "COC(=O)C[C@@H]1Cc2cc3c(-c4c(OC)cc(O)c5c(O)c6c(cc45)C[C@@H](CC(=O)OC)OC6=O)c(OC)cc(O)c3c(O)c2C(=O)O1", "note": "[viriditoxin]", "values": [
      {"measurement": "activity, % of DMSO control at 10 μM", "result": "we could observe a decreased activity upon treatment with VDT for complex I"}
    ]}
  ]
}
